Data: patent US20160192658A1 (priority 2013, published 2016)

Experiment: in vitro
Conditions: human

## NC(=O)c1ncn([C@@H]2O[C@H](CO)[C@@H](O)[C@H]2O)n1 [Ribavirin, ribavirin]
  CC50 at 5 days: > 200 µM
